# Reference: PubChem BioAssay AID826 (PCMD, 2007)
# Calls of active or inactive are those of the source. No rule for the calls is given here. Where a SMILES comes first, the peptide text is derived from it. The star is where a group is joined. Boc = CC(C)(C)OC(=O)*
# Molecular target: DNA-directed RNA polymerase subunit beta (Escherichia coli (strain K12)) (UniProt P0A8V2)
# Assay: E. coli RNAP inhibitors, dose response, biochemical, confirmation (AID 826)
# Details: E. coli RNA polymerase biochemical transcription assay
# DNA-directed RNA polymerase subunit beta (Escherichia coli (strain K12)), sequence (P0A8V2 whole entry, looked up): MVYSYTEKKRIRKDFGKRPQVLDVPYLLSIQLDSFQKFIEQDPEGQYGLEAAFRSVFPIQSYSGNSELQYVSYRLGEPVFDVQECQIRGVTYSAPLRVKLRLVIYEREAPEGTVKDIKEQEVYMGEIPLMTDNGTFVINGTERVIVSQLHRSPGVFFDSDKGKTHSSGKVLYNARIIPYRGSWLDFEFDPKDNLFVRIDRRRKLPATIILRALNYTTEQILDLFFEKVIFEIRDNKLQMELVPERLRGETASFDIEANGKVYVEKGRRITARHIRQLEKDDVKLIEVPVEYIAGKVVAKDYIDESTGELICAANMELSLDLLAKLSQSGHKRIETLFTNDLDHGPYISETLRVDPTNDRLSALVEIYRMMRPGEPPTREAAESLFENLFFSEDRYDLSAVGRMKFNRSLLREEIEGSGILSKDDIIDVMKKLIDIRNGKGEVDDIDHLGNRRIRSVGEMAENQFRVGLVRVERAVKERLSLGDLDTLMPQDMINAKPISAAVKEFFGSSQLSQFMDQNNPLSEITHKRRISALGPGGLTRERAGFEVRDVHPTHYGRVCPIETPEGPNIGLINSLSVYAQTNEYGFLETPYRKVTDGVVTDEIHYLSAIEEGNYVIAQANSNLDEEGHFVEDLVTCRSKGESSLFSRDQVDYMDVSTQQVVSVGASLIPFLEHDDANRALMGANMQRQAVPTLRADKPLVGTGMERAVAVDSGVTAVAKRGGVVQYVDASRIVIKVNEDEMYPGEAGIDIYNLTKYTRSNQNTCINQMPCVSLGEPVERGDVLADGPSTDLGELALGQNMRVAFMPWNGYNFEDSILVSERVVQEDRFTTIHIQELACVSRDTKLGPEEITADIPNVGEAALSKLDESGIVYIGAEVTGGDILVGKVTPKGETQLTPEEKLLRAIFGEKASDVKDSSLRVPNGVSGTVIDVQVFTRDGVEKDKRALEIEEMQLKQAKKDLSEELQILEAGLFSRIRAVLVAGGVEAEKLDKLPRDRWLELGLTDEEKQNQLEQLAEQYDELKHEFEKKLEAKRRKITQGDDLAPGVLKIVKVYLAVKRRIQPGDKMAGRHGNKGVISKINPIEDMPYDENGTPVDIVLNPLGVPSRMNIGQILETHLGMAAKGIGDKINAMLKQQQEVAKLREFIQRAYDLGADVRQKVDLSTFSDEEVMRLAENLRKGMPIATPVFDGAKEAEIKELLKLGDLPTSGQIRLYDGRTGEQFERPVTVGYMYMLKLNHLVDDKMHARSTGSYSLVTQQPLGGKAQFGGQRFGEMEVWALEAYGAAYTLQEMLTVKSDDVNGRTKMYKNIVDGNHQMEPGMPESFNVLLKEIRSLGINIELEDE
row,Structure (SMILES),IC50
1,COc1ccc(C2=NO[C@@H]3C(=O)N(c4c(C)cccc4C)C(=O)[C@H]23)cc1OC,> 50 µM (inactive)
2,CC(C)(C)OC(=O)N1CCCC1C(=O)N1CCCC1C(=O)N1CCCC1C(=O)O (stereo not drawn) (Boc-Pro-Pro-Pro-OH; configuration not given here),> 50 µM (inactive)
3,COCCN1C(=O)C(O)=C(C(C)=O)C1c1ccc(OC)c(OC)c1 (configuration not stated),> 50 µM (inactive)
4,CCCCn1c(O)c(C(CC)=NCCCN(C)C)c(=O)[nH]c1=O,> 50 µM (inactive)
5,O=C1N(O)C2(C=CCCC2)/C(=N\O)C12CCCCC2 (configuration not stated),> 50 µM (inactive)
6,CC(=O)C1=C(C)Nc2cc(C(F)(F)F)ccc2S1,> 50 µM (inactive)
7,CCOC(=O)C1=C(c2ccccc2)OC(N)=C(C#N)C1C(C)C (configuration not stated),> 50 µM (inactive)
